Publication PMC12051620, “Molecular basis underlying the specificity of an antagonist AA92593 for mammalian melanopsins” (The Journal of Biological Chemistry, 2025)

Key:
[1] = target: T1, mouse melanopsin F94^2.61C/S188^ECL2T/S269^6.52A mutant (Mus musculus, UniProt Q9QXZ9, F126C/S221T/S310A); assay: GsX GloSensor assay with Gsα/q11; format: cell-based; details: 16.7 μM AA92593, COS-1 cells
T1 construct: expressed in transfected cells; host or cells: COS-1
Description: (§1) The single substitutions F94^2.61C, S188^ECL2T, and S269^6.52A in mammalian melanopsins reduced the inhibitory effects of AA92593 (Figs. 2G and 3E). We suspected that the combination of these substitutions would further decrease the AA92593 effect. We thus introduced the triple substitutions F94^2.61C/S188^ECL2T/S269^6.52A into human and mouse melanopsins and examined the inhibitory effects of AA92593. In both mammalian melanopsins, the F94^2.61C/S188^ECL2T/S269^6.52A substitution reduced the inhibitory effect of AA92593 more than the single substitutions (∼63% and ∼35% reductions for human and mouse melanopsins, respectively) (Figs. 2, F and G, 3, D and E).
(§2) For GloSensor assay, opsins, GloSensor assay sensor (coded by pGlo-22F), and NanoBiT-tagged G proteins were transiently expressed in COS-1 cells (kindly provided from Dr David Farrens, Oregon Health and Science University) using PEI as described previously ([24], [52]). For the GsX GloSensor assay ([12], [13]), each well of a 96-well assay plate (Corning) was transfected with 50 ng opsin plasmid, 16.7 ng G protein plasmid, 50 ng pGlo-22F plasmid (Promega), and 500 ng PEI in 25 μl Opti-mem and 75 μl Dulbecco's modified Eagle's medium (D-MEM). […] For GFP-fluorescence microscopy, a 35-mm cell culture dish (IWAKI) was transfected with 2 μg melanopsin-GFP plasmid and 8 μg PEI in 400 μl Opti-mem and 1.2 ml D-MEM. […]

[2] = target: T2, human melanopsin F94^2.61C/S188^ECL2T/S269^6.52A mutant (Homo sapiens, UniProt Q9UHM6, F127C/S222T/S313A); assay: GsX GloSensor assay with Gsα/q11; format: cell-based; details: 16.7 μM AA92593, COS-1 cells
T2 construct: expressed in transfected cells; host or cells: COS-1
Description: as §1, §2

T1 sequence (Q9QXZ9 1-381 F126C/S221T/S310A): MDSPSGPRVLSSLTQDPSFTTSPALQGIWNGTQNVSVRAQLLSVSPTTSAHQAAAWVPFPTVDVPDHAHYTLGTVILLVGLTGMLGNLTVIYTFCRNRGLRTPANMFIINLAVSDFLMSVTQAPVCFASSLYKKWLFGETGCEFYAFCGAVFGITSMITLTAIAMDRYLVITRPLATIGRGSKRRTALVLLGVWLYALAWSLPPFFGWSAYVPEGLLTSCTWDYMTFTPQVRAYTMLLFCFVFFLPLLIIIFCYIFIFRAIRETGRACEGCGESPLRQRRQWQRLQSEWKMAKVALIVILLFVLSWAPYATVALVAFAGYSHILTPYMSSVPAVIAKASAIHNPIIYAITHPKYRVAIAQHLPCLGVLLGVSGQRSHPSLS
T2 sequence (Q9UHM6 1-384 F127C/S222T/S313A): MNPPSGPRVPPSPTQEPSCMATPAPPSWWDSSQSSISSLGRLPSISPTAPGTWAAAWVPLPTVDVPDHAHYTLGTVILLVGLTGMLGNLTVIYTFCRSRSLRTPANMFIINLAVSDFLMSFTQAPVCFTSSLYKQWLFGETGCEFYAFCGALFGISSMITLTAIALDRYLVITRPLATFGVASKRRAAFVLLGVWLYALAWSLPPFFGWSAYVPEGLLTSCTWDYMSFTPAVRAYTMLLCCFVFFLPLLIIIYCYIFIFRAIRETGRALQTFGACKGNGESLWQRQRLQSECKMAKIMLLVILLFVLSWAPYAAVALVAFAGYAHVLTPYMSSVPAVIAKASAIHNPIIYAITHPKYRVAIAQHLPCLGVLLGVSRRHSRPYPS

With COc1ccc(S(=O)(=O)N2CCCCC2)cc1C [AA92593] the “reduction of the inhibitory effect of AA92593 vs WT” value [1] was about 35% and the “reduction of the inhibitory effect of AA92593 vs WT” value [2] was about 63%.
